The source of these data is BindingDB's records for doi:10.1021/jm051074u (Cephalon, 2007).

The target in the test is Mitogen-activated protein kinase kinase kinase 10 (Homo sapiens, UniProt Q02779). In words: Mixed-Lineage Kinase Assays. The method, then: The MLK1, MLK2, and MLK3 assays were performed using the Millipore multiscreen trichloroacetic acid (TCA) in-plate format. IC50 values were calculated by nonlinear regression using the sigmoidal dose-response (variable slope) equation in GraphPad Prism.
Chain of Mitogen-activated protein kinase kinase kinase 10 (Q02779 whole entry): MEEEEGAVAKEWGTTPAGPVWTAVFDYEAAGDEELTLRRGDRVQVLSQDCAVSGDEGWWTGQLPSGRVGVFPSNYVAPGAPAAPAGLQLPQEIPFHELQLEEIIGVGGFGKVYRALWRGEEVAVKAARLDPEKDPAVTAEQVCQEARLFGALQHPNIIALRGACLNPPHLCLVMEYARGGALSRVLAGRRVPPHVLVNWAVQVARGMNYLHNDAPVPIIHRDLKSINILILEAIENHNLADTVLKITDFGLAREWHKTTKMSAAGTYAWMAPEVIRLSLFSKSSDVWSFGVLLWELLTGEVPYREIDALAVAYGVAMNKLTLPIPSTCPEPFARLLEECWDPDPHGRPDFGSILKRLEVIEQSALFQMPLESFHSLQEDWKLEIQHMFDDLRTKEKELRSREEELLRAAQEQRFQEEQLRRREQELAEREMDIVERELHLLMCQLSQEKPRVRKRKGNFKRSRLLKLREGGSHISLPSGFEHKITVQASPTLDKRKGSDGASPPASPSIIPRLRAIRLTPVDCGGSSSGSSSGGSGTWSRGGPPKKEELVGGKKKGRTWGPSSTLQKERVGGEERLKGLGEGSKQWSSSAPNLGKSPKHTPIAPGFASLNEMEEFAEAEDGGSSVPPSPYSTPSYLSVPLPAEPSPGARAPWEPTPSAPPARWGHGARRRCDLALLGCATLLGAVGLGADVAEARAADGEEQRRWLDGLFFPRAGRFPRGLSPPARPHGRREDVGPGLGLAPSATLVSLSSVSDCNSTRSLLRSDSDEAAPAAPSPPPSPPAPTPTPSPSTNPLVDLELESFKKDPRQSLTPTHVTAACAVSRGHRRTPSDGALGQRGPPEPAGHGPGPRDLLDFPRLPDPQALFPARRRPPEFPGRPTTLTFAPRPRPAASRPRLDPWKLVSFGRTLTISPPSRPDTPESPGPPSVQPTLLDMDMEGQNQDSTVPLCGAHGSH

Turning to `COC(=O)[C@@]1(O)C[C@H]2O[C@]1(C)n1c3ccccc3c3c4c(c5c6ccccc6n2c5c31)C(=O)NC4`, the IC50 – broadly, the midpoint of a concentration-inhibition curve – was 45 nM.
